Assay: In vitro elution of antibiotics from beads into PBS, quantified by LCMS
Format: physicochemical
Conditions: beads in 4 mL PBS at 37° C, 1.5 ml exchanged per time point
Method: Three grams of beads 2 were immersed in 4 mL of sterile phosphate-buffered saline (PBS) at 37° C. At each time point, 1.5 ml of the solution was sampled and replenished with fresh PBS. The samples were then syringe filtered using a 0.2 μm 13 mm PES syringe tilter into 2 mL amber glass vials.
Quantification of eluted antibiotics was measured using a single quadrupole mass spectrometer (MS) coupled to a 1260 infinity II series liquid chromatography stack (LCMS) (Agilent Technologies). Depending on the concentration, samples were analysed either neat or diluted to ensure values fell within the linear range of the standard curves. Concentrations were calculated from peak areas using standard curves developed from dilutions of antibiotic prepared to known concentrations. Separation was conducted with a Poroshell 120-SB-C18 column ([…]).
LCMS conditions were Buffer A was 99.9% H2O, 0.1% Heptafluorobutyric Acid and B was 99.9% Acetonitrile (CAN), 0.1% % Heptafluorobutyric Acid. The gradient was held with 30.0% B for 2 min before increasing linearly to 95.0% over 5 min. The 100% B was maintained for a further 1 min before rapid equilibration in 100% A. The flow rate was constant at 0.3 mL/min.
The gas temperature in the source was 325° C. with a flow rate of 9 L/min. The nebulizer pressure was 35 pounds per square inch and the capillary voltage […]. Fragmentor and collision energy voltages were optimized for each antibiotic.

tobramycin sulfate showed an Elution concentration (Day 1) of 7046.208 µg/mL, an Elution concentration (Day 3) of 4693.264 µg/mL and an Elution concentration (Day 4) of 3130.589 µg/mL. The Elution concentration (Day 7) was 1972.743 µg/mL, the Elution concentration (Day 8) was 1058.751 µg/mL and the Elution concentration (Day 9) was 574.1567 µg/mL. It also gave an Elution concentration (Day 10) of 354.742 µg/mL, an Elution concentration (Day 11) of 216.352 µg/mL and an Elution concentration (Day 14) of 135.2563 µg/mL. It also gave an Elution concentration (Day 15) of 109.8367 µg/mL, an Elution concentration (Day 17) of 15.486 µg/mL and an Elution concentration (Day 18) of 9.978 µg/mL. It also gave an Elution concentration (Day 21) of 7.125 µg/mL, an Elution concentration (Day 22) of 5.194 µg/mL and an Elution concentration (Day 23) of 3.866 µg/mL. For the same substance, the Elution concentration (Day 24) was 3.277 µg/mL, the Elution concentration (Day 25) was 2.913 µg/mL and the Elution concentration (Day 29) was 2.833 µg/mL. It also gave an Elution concentration (Day 30) of 2.598 µg/mL and an Elution concentration (Day 31) of 2.454 µg/mL.

Reference: patent US20230047224A1 (Biocomposites Limited, priority 2021, published 2023)
